Data on one compound can be found in patent publication US10376520B2, “Methods for the treatment of cardiovascular disorders” (Galapagos NV, priority 2015, dated 2019).

The test system of experiment [1] is RA patients. The experiment is described as follows: ApoB level (Selectra autoanalyzer), Study 4. The note with it: for ApoB level, 4 weeks CFB: 4 weeks change from baseline. In kind it is in vivo, human. On the procedure:
(§1) Randomized double-blind, placebo-controlled add on study in subjects with active RA who have an inadequate response to MTX monotherapy, in combination with methotrexate, administered for 4 weeks in the treatment of subjects with active rheumatoid arthritis who have an inadequate response to methotrexate alone.
(§2) Compound 1 (dosed as a [Compound 1:HCl:3H2O]) capsules administered orally in 30 mg, 75 mg, 150 mg, or 300 mg doses per day for 4 weeks.
ApoAI, and ApoB were measured on the Selectra autoanalyzer (Sopachem BV, 44-RI Straat 33, 4051 AP Ochten, The Netherlands). All assays were commercially available from DiaSys Diagnostic Systems GmbH, Alte Strasse 9, 65558 Holzheim, Germany.

For experiment [2], the system named is RA patients. In words: Plasma ApoC-II concentration (ELISA), Study 4. To be noted: 4 weeks change from baseline. In kind it is in vivo, human. On the procedure:
as §1, §2
Plasma ApoC-II and ApoC-III concentrations are determined using commercial available ELISA kits from Abnova (9th Floor, No. 108, Jhouzih St., Neihu District. Taipei City, 114, Taiwan) according to manufacturer's instruction. apoC2: catalogue number KA0464, lot number used: 08871403. apoC3: catalogue number KA0465, lot number used: 02961525.

The structures appear in SMILES notation.

`O=C(Nc1nc2cccc(-c3ccc(CN4CCS(=O)(=O)CC4)cc3)n2n1)C1CC1` [Compound 1, cyclopropanecarboxylic acid {5-[4-(1,1-dioxo-thiomorpholin-4-ylmethyl)-phenyl]-[1,2,4]triazolo[1,5-a]pyridin-2yl}-amide]: the “ApoB level, 4 weeks CFB” value in the experiment with RA patients [1] (30 mg q.d.) was 19.5%; in the experiment on RA patients [1] (75 mg q.d.) it was −1.1%; in the experiment on RA patients [1] (150 mg q.d.), −1.8%; in the experiment on RA patients [1] (300 mg q.d.), 6.8%. For the same compound, the ApoB level, Baseline turned out to be 98.8 mg/dL with RA patients [1] (30 mg q.d.), 98.5 mg/dL with RA patients [1] (75 mg q.d.), 93.8 mg/dL with RA patients [1] (150 mg q.d.) and 89.4 mg/dL in the experiment with RA patients [1] (300 mg q.d.). In addition, the ApoB level, week 4 in the experiment on RA patients [1] (30 mg q.d.) turned out to be 111 mg/dL; with RA patients [1] (75 mg q.d.), 94.7 mg/dL; with RA patients [1] (150 mg q.d.), 90.7 mg/dL; in the experiment on RA patients [1] (300 mg q.d.), 95.6 mg/dL. In addition, the “ApoC-II level, 4 weeks CFB” value came out at 11.2% in the experiment on RA patients [2] (30 mg q.d.), 23.3% in the experiment on RA patients [2] (75 mg q.d.), 8.6% in the experiment on RA patients [2] (150 mg q.d.) and 37.0% in the experiment with RA patients [2] (300 mg q.d.).
